The values below are quoted from earlier work in PMC3090270 (Structure (London, England : 1993), 2010).

In one series the test system is cardiac myocytes. Conditions: H2O2 treatment, ref Brennan et al., 2006.
Another series concerns RI subunits. As to conditions: ref Huang et al., 1997b (D-AKAP1), 1997a (D-AKAP2), Reinton et al., 2000 (AKAP220), Gronholm et al., 2003 (Merlin), Li et al., 2001 (Pap7).

For the compound `OO` [H2O2], in the series on cardiac myocytes, the “disulfide formation in RIα D/D” value is listed as “increased disulfide bond formation” and the “nuclear localization of PKA” value is listed as “nuclear localization of PKA”.

With AKAP220: dual-specific AKAP, in the series on RI subunits, the “binding to RI subunits (dual-specific)” value was “bind RI subunits”.
